Measured values reported in PubChem BioAssay AID1963449 (Molecular Pharmacology Branch, DTP, NCI, 2024).
Where “and” joins values, the source holds several entries; their conditions need not be identical. Equal values may be shown once.

Test system: 596521-263-R-J1-PDC complex spheroid growth
Assay: Anticancer human tumor 596521-263-R-J1-PDC patient-derived soft tissue sarcoma cell line growth inhibition [Asc]
Conditions: for viability, T/C: stronger effect = lower value
How it was run: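 Complex solid-tumor spheroids incorporating human endothelial and mesenchymal stem cells received single agents or combinations over half-log dilution ranges anchored to clinical Cmax.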

[1] = curve of first compound, second compound 0.00949 µM
[2] = curve of first compound, second compound 0.03 µM
[3] = curve of first compound, second compound 0.0949 µM
[4] = curve of first compound, second compound 0.3 µM
[5] = curve of first compound, second compound 0.949 µM
[6] = curve of first compound, second compound 3 µM
[7] = second compound 0.00949 µM, first compound 0.0316 µM
[8] = second compound 0.00949 µM, first compound 0.1 µM
[9] = second compound 0.00949 µM, first compound 0.316 µM
[10] = second compound 0.00949 µM, first compound 1 µM
[11] = second compound 0.03 µM, first compound 0.0316 µM
[12] = second compound 0.03 µM, first compound 0.1 µM
[13] = second compound 0.03 µM, first compound 0.316 µM
[14] = second compound 0.03 µM, first compound 1 µM
[15] = second compound 0.0949 µM, first compound 0.0316 µM
[16] = second compound 0.0949 µM, first compound 0.1 µM
[17] = second compound 0.0949 µM, first compound 0.316 µM
[18] = second compound 0.0949 µM, first compound 1 µM
[19] = second compound 0.3 µM, first compound 0.0316 µM
[20] = second compound 0.3 µM, first compound 0.1 µM
[21] = second compound 0.3 µM, first compound 0.316 µM
[22] = second compound 0.3 µM, first compound 1 µM
[23] = second compound 0.949 µM, first compound 0.0316 µM
[24] = second compound 0.949 µM, first compound 0.1 µM
[25] = second compound 0.949 µM, first compound 0.316 µM
[26] = second compound 0.949 µM, first compound 1 µM
[27] = second compound 3 µM, first compound 0.0316 µM
[28] = second compound 3 µM, first compound 0.1 µM
[29] = second compound 3 µM, first compound 0.316 µM
[30] = second compound 3 µM, first compound 1 µM
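Also: spheroids exposed to compounds for 7 days.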

CCN1CCN(Cc2ccc(Nc3ncc(F)c(-c4cc(F)c5nc(C)n(C(C)C)c5c4)n3)nc2)CC1 + CCN1C(C(=O)NC23CCC(C(=O)O)(CC2)CC3)C(c2cccc(Cl)c2F)C2(C(=O)Nc3cc(Cl)ccc32)C12CCCCC2
IC50 [1]: > 1 µM
IC50 [2]: > 1 µM
IC50 [3]: > 1 µM
IC50 [4]: > 1 µM
IC50 [5]: > 1 µM
IC50 [6]: > 1 µM
viability, T/C (second compound 0.00949 µM, first compound 0.00316 µM): 100%
viability, T/C (second compound 0.00949 µM, first compound 0.01 µM): 96.6%
viability, T/C [7]: 82.5%
viability, T/C [8]: 103%
viability, T/C [9]: 97.5%
viability, T/C [10]: 83.2%
viability, T/C (second compound 0.03 µM, first compound 0.00316 µM): 92.6%
viability, T/C (second compound 0.03 µM, first compound 0.01 µM): 96.9%
viability, T/C [11]: 96.8%
viability, T/C [12]: 89.4%
viability, T/C [13]: 110%
viability, T/C [14]: 88%
viability, T/C (second compound 0.0949 µM, first compound 0.00316 µM): 99.5%
viability, T/C (second compound 0.0949 µM, first compound 0.01 µM): 112%
viability, T/C [15]: 96.1%
viability, T/C [16]: 85.5%
viability, T/C [17]: 93.6%
viability, T/C [18]: 86.7%
viability, T/C (second compound 0.3 µM, first compound 0.00316 µM): 97.1%
viability, T/C (second compound 0.3 µM, first compound 0.01 µM): 93.5%
viability, T/C [19]: 90%
viability, T/C [20]: 102%
viability, T/C [21]: 93.1%
viability, T/C [22]: 77.3%
viability, T/C (second compound 0.949 µM, first compound 0.00316 µM): 103%
viability, T/C (second compound 0.949 µM, first compound 0.01 µM): 93.2%
viability, T/C [23]: 103%
viability, T/C [24]: 91.2%
viability, T/C [25]: 82.8%
viability, T/C [26]: 83.4%
viability, T/C (second compound 3 µM, first compound 0.00316 µM): 91.6%
viability, T/C (second compound 3 µM, first compound 0.01 µM): 102%
viability, T/C [27]: 89.9%
viability, T/C [28]: 97.7%
viability, T/C [29]: 98.5%
viability, T/C [30]: 89.9%

C#Cc1c(F)ccc2cc(O)cc(-c3ncc4c(N5CC6CCC(C5)N6)nc(OCC56CCCN5CC(F)C6)nc4c3F)c12 (stereo unspecified)
viability, T/C (compound 0.0316 µM): 102% and 104% (2×)
viability, T/C (compound 0.1 µM): 87% and 90.2% and 98.9%
viability, T/C (compound 0.316 µM): 99.2% and 109% and 98.2%
viability, T/C (compound 1 µM): 102% (2×) and 112%
viability, T/C (compound 3.16 µM): 100% and 94.5% and 103%
viability, T/C (compound 10 µM): 93.4% and 85.1% and 88.1%
IC50 (curve of compound): > 10 µM

C=C(F)C(=O)N1CCN(c2nc(OCC3CCCN3C)nc3c2CCN(c2cccc4cccc(Cl)c24)C3)CC1CC#N (stereo unspecified) + CCN1C(C(=O)NC23CCC(C(=O)O)(CC2)CC3)C(c2cccc(Cl)c2F)C2(C(=O)Nc3cc(Cl)ccc32)C12CCCCC2
IC50 [1]: 5.24 µM
IC50 [2]: 5.11 µM
IC50 [3]: 5.18 µM
IC50 [4]: 5.11 µM
IC50 [5]: 4.73 µM
IC50 [6]: 4.53 µM
viability, T/C [7]: 106%
viability, T/C [8]: 102%
viability, T/C [9]: 91.2%
viability, T/C [10]: 104%
viability, T/C (second compound 0.00949 µM, first compound 3.16 µM): 88.7%
viability, T/C (second compound 0.00949 µM, first compound 10 µM): 0.73%
viability, T/C [11]: 101%
viability, T/C [12]: 90.4%
viability, T/C [13]: 97.5%
viability, T/C [14]: 97.3%
viability, T/C (second compound 0.03 µM, first compound 3.16 µM): 85.3%
viability, T/C (second compound 0.03 µM, first compound 10 µM): 0.62%
viability, T/C [15]: 94.3%
viability, T/C [16]: 96.4%
viability, T/C [17]: 106%
viability, T/C [18]: 101%
viability, T/C (second compound 0.0949 µM, first compound 3.16 µM): 86.1%
viability, T/C (second compound 0.0949 µM, first compound 10 µM): 1.83%
viability, T/C [19]: 98.7%
viability, T/C [20]: 107%
viability, T/C [21]: 101%
viability, T/C [22]: 100%
viability, T/C (second compound 0.3 µM, first compound 3.16 µM): 83.6%
viability, T/C (second compound 0.3 µM, first compound 10 µM): 2.96%
viability, T/C [23]: 109%
viability, T/C [24]: 97.9%
viability, T/C [25]: 108%
viability, T/C [26]: 105%
viability, T/C (second compound 0.949 µM, first compound 3.16 µM): 75.3%
viability, T/C (second compound 0.949 µM, first compound 10 µM): 2.73%
viability, T/C [27]: 97%
viability, T/C [28]: 98.6%
viability, T/C [29]: 102%
viability, T/C [30]: 80.2%
viability, T/C (second compound 3 µM, first compound 3.16 µM): 75.5%
viability, T/C (second compound 3 µM, first compound 10 µM): 2.66%
